A short description of data set [1]: Critical micelle concentration and surface tension of water, Du Nouy method (Kibron Delta-8 microtensiometer). The class given is physicochemical. As to conditions: for CMC: degassed deionized water, 24-25° C.; for Minimum Surface Tension: surface tension of water at CMC (water 72 mN/m). The protocol: As summarized in Table 1, the critical micelle concentrations (CMCs) of NB-RLP1006, NB-RLP978, NB-RLP860, and NB-RLP-1048B were determined by the Du Nouy method utilizing a Kibron Delta-8 multichannel microtensiometer (Kibron Inc., Helsinki, Finland). All samples were prepared in degassed deionized water (Millipore, Etobicoke, ON, CA) at concentrations ranging from 0 to 2.0 mM. All measurements were recorded between 24 and 25° C. and performed in duplicate. The critical micelle concentration of both NB-RLP1006 and NB-RLP978 was 0.20 mM (0.02 wt %). […] The surface activity of NB-RLP1006 was compared to rhamnolipids A and B, which were purified from a commercially available rhamnolipid mixture (R90; AGAE Technologies, Corvallis, OR, USA) by reversed-phase HPLC.

Data set [2] relates to adult epidermal keratinocytes (HEKa). As to the kind of experiment: Cytotoxicity testing, alamarBlue, HEKa cells. To be noted: 24 h treatment; for HEKa (MIC90): 90% of growth inhibition; for IC50: Homo sapiens, HEKa. The class given is cell-based, human. The protocol:
(§1) To evaluate the safety profile of the glycolipopeptides, cytotoxicity testing was conducted against two normal human cell lines, BJ fibroblast cells ATCC CRL-2522 and adult epidermal keratinocytes (HEKa; Life Technologies, Carlsbad, CA, USA). […] Life Technologies, Carlsbad, CA, USA) and 50 μg/mL gentamicin (Sigma-Aldrich, St. Louis, MO, USA). Cells were cultured in […]^2 cell culture flasks and incubated at 37° C. in a humidified atmosphere of 5% CO2. For BJ fibroblasts culture media was refreshed every two to three days and cells were not allowed to exceed 80% confluence. […] At 80% confluence, the cells were counted, diluted to 10,000 cells/well in growth medium lacking antibiotics and 90 μL of cell suspension was transferred into the wells of 96-well treated cell culture plates. The plates were incubated as before to allow cells to adhere to the plates for 24 h before treatment. DMSO was used as the vehicle at a final concentration of 1%. […] The fibroblasts and HEKa cells were incubated as previously described for 24 h. All samples were tested in triplicate. […] AlamarBlue (Life Technologies, Carlsbad, CA, USA) was added to each well 24 h after treatment (10% v/v). Fluorescence (560/12 excitation, 590 nm emission) was monitored using a Varioskan Flash Multimode plate reader both at time zero and 4 h after the addition of alamarBlue. After subtraction of fluorescence at time zero from 4 h readings the percentage of cell viability relative to vehicle control wells was calculated.
In general terms: Resazurin is reduced to fluorescent resorufin, in cell work by metabolically active cells.

In data set [3] the test system is BJ fibroblast cells ATCC CRL-2522. As to the kind of experiment: Cytotoxicity testing, alamarBlue, BJ fibroblasts. As to conditions: 24 h treatment; for BJ (MIC90): 90% of growth inhibition; for IC50: Homo sapiens, Fibroblast. It counts as cell-based, human. Here is the method:
as §1

Data set [4] is described as follows: Aqueous solubility (remark). The class given is physicochemical. As to conditions: in words.
Data set [5] in a line: Characteristic curvature (Cc) by HLD-NAC model, electrolyte scan with SDHS/toluene. The class given is physicochemical. To be noted: NB-RLP1006/SDHS mixtures, toluene oil phase, NaCl 0 to 6.0% (w/v). Here is the method:
The characteristic curvature (Cc) of NB-RLP1006 was determined using the hydrophilic-lipophilic difference-net average curvature (HLD-NAC) model to calculate the shift in chemical potential when NB-RLP1006 is transferred from the oil to the aqueous phase as a function of salinity by the following general equation: HLD=F(S)−k×EACN+F(A)−∝×ΔT+Cc where F(S) is a function of salinity, k is a coefficient equal to 0.17, EACN (effective alkane carbon number) is the number of carbons in the alkane oil phase, α is a coefficient dependent on the type of surfactant (ionic, ethoxylates, etc), and ΔT is the effect of temperature. Four mixtures of NB-RLP1006 and sodium dihexyl sulfosuccinate (SDHS) were prepared with a total surfactant concentration of 1.8 mg/mL using the following NB-RLP1006/SDHS ratios: 0, 12, 24, and 40 wt % NB-RLP1006. An electrolyte scan was performed for each mixture by varying the NaCl concentration from 0 to 6.0% (w/v). Each mixture was added to an equal volume of toluene, which constituted the oil phase, and shaken vigorously. […] A plot of the NB-RLP1006/SDHS molar ratios versus S* was generated and Cc was calculated from the line of best fit. The Cc value for NB-RLP1006 was determined to be +5.2, a value that reflects the hydrophobic nature of this biosurfactant.

The nature of data set [6]: Emulsification activity assay (emulsification index E24, kerosene). It counts as physicochemical. The protocol:
V. paradoxus RKNM-096 was identified as a biosurfactant producer in a screen aimed at identifying bacterial producers of biosurfactants with emulsifying properties. The assay utilized to identify bacterial producers of biosurfactants was the emulsification activity assay. In this assay cultures were grown in 10 mL of liquid medium in 25 mm×150 mm glass tubes at 30° C. with shaking at 200 rpm for 5 days. After 5 days, the cells were removed by centrifugation and 3.5 mL of cell free culture broth was mixed with 3.5 mL of kerosene in a 13 mm×100 mm test tube with a screw cap tube. The tubes were vortexed for two minutes and then allowed to stand overnight at room temperature after which the height of the emulsion (hemuls) and the total height (htotal) of the liquid in the tube were measured. The emulsification index (E24) was calculated using the equation E24=hemuls/htotal×100%.
(§2) The emulsifying properties of NB-RLP1006 were determined using the emulsification index as described above. […] The emulsification of NB-RLP1006 is pH-dependent with E24 values of 8, 38, and 31% at pH 3, 6, and 8, respectively. The type of emulsion formed by NB-RLP1006 (e.g. oil-in-water or water-in-oil) was determined using the drop dilution test. An emulsion was formed by vigorously mixing a 1 mg/mL solution of RLP1006 in deionized water with an equal volume of kerosene for 1 min. A portion (20 μL) of the emulsion was transferred to 0.5 mL of deionized water and 0.5 mL of kerosene and dilution of the emulsion in each liquid was monitored.

Data set [7] can be described thus: Drop dilution test for type of emulsion. To be noted: 1 mg/mL in deionized water with equal volume of kerosene. The class given is physicochemical. Here is the method: as §2

Converted amounts (≈) assume the structure as drawn.

One may read the IC50 as the concentration that gives 50% inhibition. In the case of `CCCCCCCC(CC(=O)NC(CO)C(=O)NC(CO)CC(C)C)OC(=O)CC(CCCCCCC)OC(=O)CC(CCCCCCC)OC1OC(C)C(O)C(O)C1O` (stereo not drawn) [NB-RLP860], the values for the CMC in data set [1] and in data set [1] (duplicate) were 0.07 wt % and 0.85 mM, respectively. In addition, the “Minimum Surface Tension” value in data set [1] is recorded as 36.2 mN/m. Further, the “HEKa (MIC90)” value in data set [2] was 128 µg/mL. In addition, the IC50 in data set [2] (error is standard deviation) is 15.5 ± 1.6 µg/mL (≈ 18 µM); in data set [3] (error is standard deviation), 16.3 ± 0.3 µg/mL (≈ 18.9 µM). In data set [3], the “BJ (MIC90)” value was 32 µg/mL. Besides, in data set [4], the aqueous solubility entry is “poor aqueous solubility”.

On to `CCCC(CC(=O)NC(CO)C(=O)NC(CO)CC(C)C)OC(=O)CC(CCC)OC(=O)CC(CCC)OC1OC(C)C(O)C(OC2OC(C)C(O)C(O)C2O)C1O` (stereo not drawn) [NB-RLP978], for which the CMC in data set [1] was 0.02 wt %; in data set [1] (duplicate) it was 0.20 mM. Further, in data set [1], the “Minimum Surface Tension” value was 35.5 mN/m.

With `CCCCCCCC(CC(=O)NC(CO)C(=O)NC(CO)CC(C)C)OC(=O)CC(CCCCCCC)OC(=O)CC(CCCCCCC)OC1OC(C)C(O)C(OC2OC(C)C(O)C(O)C2O)C1O` (stereo not drawn) [NB-RLP1006], the CMC in data set [1] is given as 0.02 wt %; in data set [1] (duplicate) it was 0.20 mM. In data set [1], the “Minimum Surface Tension” value was found to be 35.5 mN/m. In data set [5], the “characteristic curvature (Cc)” value is listed as “+5.2”. Besides, the “emulsification index (E24)” value is on record as 53% in data set [6] (1 mg/mL in deionized water), 8% in data set [6] (pH 3), 38% in data set [6] (pH 6) and 31% in data set [6] (pH 8). Moreover, in data set [7], the “type of emulsion formed” value was “oil-in-water (o/w) and o/w”. Moreover, the “HEKa (MIC90)” value in data set [2] lay in the range of 64 to 128 µg/mL. The figures for the IC50 in data set [2] (error is standard deviation) and in data set [3] (error is standard deviation) were 15.5 ± 1.7 µg/mL (≈ 15.4 µM) and 19.5 ± 2.4 µg/mL (≈ 19.4 µM), respectively. In addition, in data set [3], the “BJ (MIC90)” value is 32 µg/mL.

On to `CCCCCCCC(CC(=O)NC(CO)C(=O)NC(CO)CC(C)C)OC(=O)CC(CCCCCCC)OC(=O)CC(CCCCCCC)OC1OC(C)C(O)C(OC2OC(C)C(O)C(OC(C)=O)C2O)C1O` (stereo not drawn) [NB-RLP1048B], for which the CMC in data set [1] is 0.09 wt %; in data set [1] (duplicate), 0.85 mM. Further, the “Minimum Surface Tension” value in data set [1] is 36.9 mN/m. For the same compound, the “HEKa (MIC90)” value in data set [2] was in the range of 64 to 128 µg/mL. The IC50 stood at 19.3 ± 4 µg/mL (≈ 18.4 µM) in data set [2] (error is standard deviation) and 18.7 ± 1.6 µg/mL (≈ 17.8 µM) in data set [3] (error is standard deviation). In addition, the “BJ (MIC90)” value in data set [3] stood at 32 µg/mL. Moreover, the aqueous solubility entry in data set [4] is “poor aqueous solubility”.

As for Zinc pyrithione [reference compound], the “HEKa (MIC90)” value in data set [2] came out at 1 µg/mL. The “HEKa (IC50)” value in data set [2] (error is standard deviation) was found to be 0.20 ± 0.001 µg/mL. Further, the “BJ (MIC90)” value in data set [3] was 4 µg/mL. In addition, in data set [3] (error is standard deviation), the “BJ (IC50)” value amounted to 2.2 ± 0.3 µg/mL.

Source of the values: patent publication US12404294B2, “Glycolipopeptide biosurfactants” (Croda International Plc, priority 2016, dated 2025).
